{"source": "patent US20150147350A1", "about": "“Method Of Treating Cancer With MEGEA3 Immunotherapeutic With BRAF Inhibitor And/Or MEK Inhibitor” (GlaxoSmithKline LLC, priority 2011, published 2015)", "tested_on": "systemic immunity", "assay": "Peripheral blood immune-monitoring in cancer patients treated with BRAF inhibitor", "protocol": "13 patients with tumors carrying a BRAF mutation who underwent treatment with GSK2118436 (the compound of formula (I)), a V600 mutant BRAF specific inhibitor were studied to assess effects of mutant BRAF inhibition on systemic immunity. Peripheral blood immune-monitoring was carried out before and following one or two 28-day cycles of treatment."}
{"smiles": "CC(C)(C)c1nc(-c2cccc(NS(=O)(=O)c3c(F)cccc3F)c2F)c(-c2ccnc(N)n2)s1", "note": "[GSK2118436, N-{3-[5-(2-Amino-4-pyrimidinyl)-2-(1,1-dimethylethyl)-1,3-thiazol-4-yl]-2-fluorophenyl}-2,6-difluorobenzenesulfonamide]", "values": [{"measurement": "impact on most immune parameters tested (serum cytokine levels, peripheral blood cell counts, leukocyte subset frequencies, memory CD4+ and CD8+ T-cell recall responses)", "setting": "13 patients, before and following one or two 28-day cycles of treatment", "value": "no detectable impact"}, {"measurement": "serum TNF-α over the course of treatment", "setting": "13 patients, one or two 28-day cycles of treatment", "value": "slight increase"}, {"measurement": "negative impact on existing systemic immunity or the de novo generation of tumor-specific T cells", "setting": "patients, conclusion of the study", "value": "no detectable negative impact"}, {"measurement": "circulating tumor antigen-specific CD8+ T cells", "setting": "three of the four human leukocyte antigen-A2-positive patients, following BRAF(V600) inhibitor therapy", "value": "modest increase"}]}
